Experimental findings from BindingDB's records for doi:10.1021/jm050513m (The University of Texas At Houston, 2005) are described below.

Numbered stars: 1 amine (or outer) side, 2 acyl side, 3 side chain; on linkers, the order of the positions; unused ones are H or OH. Square brackets hold non-standard residues; d marks the D form. Peptide text beside a SMILES is read from it. * marks the point of attachment. ξ: configuration not given here. pY = N[C@@H](Cc1ccc(OP(=O)(O)O)cc1)C(=O)O; NH(1R-phenylethyl) = C[C@@H](N*)c1ccccc1; Hyp = O=C(O)[C@@H]1C[C@@H](O)CN1; Met(O) = CS(=O)CC[C@H](N)C(=O)O; X3 = O=C(CN1CCN([*:1])CC1)[*:2]; Cha = N[C@@H](CC1CCCCC1)C(=O)O; Thr(3ξ) = CC(O)[C@H](N)C(=O)O; 3Abz = Nc1cccc(C(=O)O)c1; Ac6c = NC1(C(=O)O)CCCCC1; Nle = CCCC[C@H](N)C(=O)O; Piperidide = C1CCN(*)CC1; NHBn = c1ccc(CN*)cc1; Ahx = NCCCCCC(=O)O; NEt2 = CCN(CC)*

The target of one experiment is Signal transducer and activator of transcription 3 (Mus musculus, UniProt P42227). The experiment can be described thus: Fluorescence Polarization Assay.
Chain of Signal transducer and activator of transcription 3 (P42227 whole entry): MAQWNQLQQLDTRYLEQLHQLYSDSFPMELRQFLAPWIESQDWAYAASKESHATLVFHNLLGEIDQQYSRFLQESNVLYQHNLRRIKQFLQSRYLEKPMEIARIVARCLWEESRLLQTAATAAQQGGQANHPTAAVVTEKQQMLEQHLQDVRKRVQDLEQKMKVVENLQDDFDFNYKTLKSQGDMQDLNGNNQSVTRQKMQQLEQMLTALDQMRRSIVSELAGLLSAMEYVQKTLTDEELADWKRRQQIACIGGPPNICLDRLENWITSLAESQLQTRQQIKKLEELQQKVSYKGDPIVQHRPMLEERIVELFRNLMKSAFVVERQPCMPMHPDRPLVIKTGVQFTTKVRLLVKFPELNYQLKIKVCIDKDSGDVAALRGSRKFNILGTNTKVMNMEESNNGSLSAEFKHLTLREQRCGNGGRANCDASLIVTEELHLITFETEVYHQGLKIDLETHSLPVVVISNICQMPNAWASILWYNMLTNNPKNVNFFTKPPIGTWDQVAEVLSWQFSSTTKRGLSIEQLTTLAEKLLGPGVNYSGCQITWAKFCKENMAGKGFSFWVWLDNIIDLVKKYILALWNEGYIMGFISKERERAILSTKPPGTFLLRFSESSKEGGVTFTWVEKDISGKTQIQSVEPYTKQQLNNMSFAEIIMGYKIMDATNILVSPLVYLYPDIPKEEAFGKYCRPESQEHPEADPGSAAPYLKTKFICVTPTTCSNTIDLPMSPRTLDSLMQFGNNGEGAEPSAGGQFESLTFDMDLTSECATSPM
Settings: not given
As to the method:
Fluorescence polarization (FP) binding assay is utilizing the intrinsic property of the fluorescent probe, which will have low polarization value when free in solution. On binding to a target, the polarization of the probe will increase. Reaction mixtures of full length STAT3 alpha and the probe were placed in wells of a 96-well microtiter plate. The test peptide solution was added to each well. Fluorescence polarization was then read in a Tecan Polarian plate reader. The IC50 values were obtained from nonlinear regression analysis in the one-site competition mode. Peptides were assayed three times using three separate Stat3-probe preparations. IC50 values are reported as the mean of three IC50 values +/- the standard deviation.
Background: Polarisation of emitted light reports the rotation of a fluorescent probe.
One may read the IC50 as the concentration that gives 50% inhibition. A lower IC50 goes with greater potency in that assay. Compound `CC(=O)N[C@@H](Cc1ccc(OP(=O)(O)O)cc1)C(=O)N[C@@H](CC(C)C)C(=O)N1CCC[C@H]1C(=O)N1CCN(CC(N)=O)CC1` [4-[(2S)-2-{[(2S)-1-[(2S)-2-{[4-(carbamoylmethyl)piperazin-1-yl]carbonyl}pyrrolidin-1-yl]-4-methyl-1-oxopentan-2-yl]carbamoyl}-2-acetamidoethyl]phenoxyphosphonic acid] showed an IC50 of 1.4 µM. In turn, `CC(=O)N[C@@H](Cc1ccc(OP(=O)(O)O)cc1)C(=O)N[C@@H](CC(C)C)C(=O)N1CCC[C@H]1C(=O)N[C@@H](CCC(N)=O)C(=O)N[C@H](C)c1ccccc1` [4-[(2S)-2-{[(2S)-1-[(2S)-2-{[(1S)-3-carbamoyl-1-{[(1R)-1-phenylethyl]carbamoyl}propyl]carbamoyl}pyrrolidin-1-yl]-4-methyl-1-oxopentan-2-yl]carbamoyl}-2-acetamidoethyl]phenoxyphosphonic acid] (Ac-[pY]LPQ-{NH(1R-phenylethyl)}) showed an IC50 of 0.801 µM. The same measure, in the same setting: with `CC(=O)N[C@@H](Cc1ccc(OP(=O)(O)O)cc1)C(=O)N[C@@H](CC(C)C)C(=O)N1CCC[C@H]1C(=O)Nc1cccc(C(N)=O)c1` [4-[(2S)-2-{[(2S)-1-[(2S)-2-[(3-carbamoylphenyl)carbamoyl]pyrrolidin-1-yl]-4-methyl-1-oxopentan-2-yl]carbamoyl}-2-acetamidoethyl]phenoxyphosphonic acid] (Ac-[pY]LP[3Abz]-NH2) the figure was 36.6 µM; with `CC(=O)N[C@@H](Cc1ccc(OP(=O)(O)O)cc1)C(=O)N[C@@H](CC(C)C)C(=O)N1CCC[C@H]1C(=O)N[C@@H](CCC(N)=O)C(=O)NCc1ccccc1` (Ac-[pY]LPQ-NHBn), 0.409 µM. The same measure, in the same setting: with `CCN(CC)C(=O)[C@H](CCC(N)=O)NC(=O)[C@@H]1CCCN1C(=O)[C@H](CC(C)C)NC(=O)[C@H](Cc1ccc(OP(=O)(O)O)cc1)NC(C)=O` [4-[(2S)-2-{[(2S)-1-[(2S)-2-{[(1S)-3-carbamoyl-1-(diethylcarbamoyl)propyl]carbamoyl}pyrrolidin-1-yl]-4-methyl-1-oxopentan-2-yl]carbamoyl}-2-acetamidoethyl]phenoxyphosphonic acid] (Ac-[pY]LPQ-NEt2) the figure was 4.22 µM. The same measure, in the same setting: the value for `CC(=O)N[C@@H](Cc1ccc(OP(=O)(O)O)cc1)C(=O)N[C@@H](CC(C)C)C(=O)N1CCC[C@H]1C(=O)N[C@@H](CCC(N)=O)C(=O)N(C)C` [4-[(2S)-2-{[(2S)-1-[(2S)-2-{[(1S)-3-carbamoyl-1-(dimethylcarbamoyl)propyl]carbamoyl}pyrrolidin-1-yl]-4-methyl-1-oxopentan-2-yl]carbamoyl}-2-acetamidoethyl]phenoxyphosphonic acid] (Ac-[pY]LPQ-NMe2) was 1.85 µM; that for `CC(=O)N[C@@H](Cc1ccc(OP(=O)(O)O)cc1)C(=O)N[C@@H](CC(C)C)C(=O)N1CCC[C@H]1C(=O)N[C@@H](CCC(N)=O)C(=O)N1CCCCC1` [4-[(2S)-2-{[(2S)-1-[(2S)-2-{[(2S)-4-carbamoyl-1-oxo-1-(piperidin-1-yl)butan-2-yl]carbamoyl}pyrrolidin-1-yl]-4-methyl-1-oxopentan-2-yl]carbamoyl}-2-acetamidoethyl]phenoxyphosphonic acid] (Ac-[pY]LPQ-Piperidide) was 7 µM. In turn, `CC(=O)N[C@@H](Cc1ccc(OP(=O)(O)O)cc1)C(=O)N[C@@H](CC(C)C)C(=O)N1CCC[C@H]1C(=O)N[C@@H](CCC(N)=O)C(=O)O` [(2S)-4-carbamoyl-2-{[(2S)-1-[(2S)-2-[(2S)-2-acetamido-3-[4-(phosphonooxy)phenyl]propanamido]-4-methylpentanoyl]pyrrolidin-2-yl]formamido}butanoic acid] (Ac-[pY]LPQ-OH) showed an IC50 of 0.748 µM.

The compound `CC(=O)N[C@@H](Cc1ccc(OP(=O)(O)O)cc1)C(=O)N[C@@H](CC(C)C)C(=O)N1CCC[C@H]1C(=O)NCCCCCC(N)=O` [4-[(2S)-2-{[(2S)-1-[(2S)-2-[(5-carbamoylpentyl)carbamoyl]pyrrolidin-1-yl]-4-methyl-1-oxopentan-2-yl]carbamoyl}-2-acetamidoethyl]phenoxyphosphonic acid] (Ac-[pY]LP[Ahx]-NH2) registered an IC50 of 9.78 µM.

Staying with this experiment, now noted: pH 7.5; 22 °C.
As to `CCCC[C@H](NC(=O)[C@H](Cc1ccc(OP(=O)(O)O)cc1)NC(C)=O)C(=O)N1CCC[C@H]1C(=O)N[C@@H](CCC(N)=O)C(=O)N[C@H](C(N)=O)C(C)O` (stereo partly drawn) [4-[(2S)-2-{[(2S)-1-[(2S)-2-{[(1S)-3-carbamoyl-1-{[(1S,2S)-1-carbamoyl-2-hydroxypropyl]carbamoyl}propyl]carbamoyl}pyrrolidin-1-yl]-1-oxohexan-2-yl]carbamoyl}-2-acetamidoethyl]phenoxyphosphonic acid] (Ac-[pY][Nle]PQ[Thr(3ξ)]-NH2), the IC50 was found to be 0.717 µM. Same read-out and setting: with `CNC(=O)CC[C@H](NC(=O)[C@@H]1CCCN1C(=O)[C@H](CC(C)C)NC(=O)[C@H](Cc1ccc(OP(=O)(O)O)cc1)NC(C)=O)C(=O)N[C@H](C(N)=O)C(C)O` (stereo partly drawn) [4-[(2S)-2-{[(2S)-1-[(2S)-2-{[(1S)-1-{[(1S,2S)-1-carbamoyl-2-hydroxypropyl]carbamoyl}-3-(methylcarbamoyl)propyl]carbamoyl}pyrrolidin-1-yl]-4-methyl-1-oxopentan-2-yl]carbamoyl}-2-acetamidoethyl]phenoxyphosphonic acid] (Ac-[pY]LPE(NHMe)[Thr(3ξ)]-NH2) the figure was 18.1 µM. The same measure, in the same setting: with `CC(=O)N[C@@H](Cc1ccc(OP(=O)(O)O)cc1)C(=O)N[C@@H](CC(C)C)C(=O)N1CCC[C@H]1C(=O)N[C@@H](CC[S+](C)[O-])C(=O)N[C@H](C(N)=O)C(C)O` (stereo partly drawn) [4-[(2S)-2-{[(2S)-1-[(2S)-2-{[(1S)-1-{[(1S,2S)-1-carbamoyl-2-hydroxypropyl]carbamoyl}-3-methanesulfinylpropyl]carbamoyl}pyrrolidin-1-yl]-4-methyl-1-oxopentan-2-yl]carbamoyl}-2-acetamidoethyl]phenoxyphosphonic acid] (Ac-[pY]LP[Met(O)][Thr(3ξ)]-NH2) the figure was 9.87 µM; with `CC(=O)N[C@@H](Cc1ccc(OP(=O)(O)O)cc1)C(=O)N[C@@H](CC(C)C)C(=O)NC1(C(=O)N[C@@H](CCC(N)=O)C(=O)N[C@H](C(N)=O)C(C)O)CCCCC1` (stereo partly drawn) [4-[(2S)-2-{[(1S)-1-[(1-{[(1S)-3-carbamoyl-1-{[(1S,2S)-1-carbamoyl-2-hydroxypropyl]carbamoyl}propyl]carbamoyl}cyclohexyl)carbamoyl]-3-methylbutyl]carbamoyl}-2-acetamidoethyl]phenoxyphosphonic acid] (Ac-[pY]L[Ac6c]Q[Thr(3ξ)]-NH2), 13.4 µM.

Consider `CC(=O)N[C@@H](Cc1ccc(OP(=O)(O)O)cc1)C(=O)N[C@@H](CC1CCCCC1)C(=O)N1CCC[C@H]1C(=O)N[C@@H](CCC(N)=O)C(=O)N[C@H](C(N)=O)C(C)O` (stereo partly drawn) [4-[(2S)-2-{[(2S)-1-[(2S)-2-{[(1S)-3-carbamoyl-1-{[(1S,2S)-1-carbamoyl-2-hydroxypropyl]carbamoyl}propyl]carbamoyl}pyrrolidin-1-yl]-3-cyclohexyl-1-oxopropan-2-yl]carbamoyl}-2-acetamidoethyl]phenoxyphosphonic acid] (Ac-[pY][Cha]PQ[Thr(3ξ)]-NH2), for which the IC50 is 0.91 µM. The same measure, in the same setting: with `CC(=O)N[C@@H](Cc1ccc(OP(=O)(O)O)cc1)C(=O)N[C@@H](CC(C)C)C(=O)N1CCC[C@H]1C(=O)N[C@@H](CCC(N)=O)C(N)=O` (Ac-[pY]LPQ-NH2) the figure was 0.856 µM; with `CC(=O)N[C@@H](Cc1ccc(OP(=O)(O)O)cc1)C(=O)N[C@@H](Cc1ccccc1)C(=O)N1CCC[C@H]1C(=O)N[C@@H](CCC(N)=O)C(=O)N[C@H](C(N)=O)C(C)O` (stereo partly drawn) [4-[(2S)-2-{[(2S)-1-[(2S)-2-{[(1S)-3-carbamoyl-1-{[(1S,2S)-1-carbamoyl-2-hydroxypropyl]carbamoyl}propyl]carbamoyl}pyrrolidin-1-yl]-1-oxo-3-phenylpropan-2-yl]carbamoyl}-2-acetamidoethyl]phenoxyphosphonic acid] (Ac-[pY]FPQ[Thr(3ξ)]-NH2), 1.89 µM; with `CC(=O)N[C@@H](Cc1ccc(OP(=O)(O)O)cc1)C(=O)N[C@@H](CC(C)C)C(=O)N1CCN(CC(=O)N[C@@H](CCC(N)=O)C(=O)N[C@H](C(N)=O)C(C)O)CC1` (stereo partly drawn) [4-[(2S)-2-{[(2S)-1-[4-({[(1S)-3-carbamoyl-1-{[(1S,2S)-1-carbamoyl-2-hydroxypropyl]carbamoyl}propyl]carbamoyl}methyl)piperazin-1-yl]-4-methyl-1-oxopentan-2-yl]carbamoyl}-2-acetamidoethyl]phenoxyphosphonic acid] (Ac-[pY]L[X3]Q[Thr(3ξ)]-NH2), 57.1 µM.

In the case of `CC(=O)N[C@@H](Cc1ccc(OP(=O)(O)O)cc1)C(=O)N[C@@H](CC(C)C)C(=O)N1C[C@H](O)C[C@H]1C(=O)N[C@@H](CCC(N)=O)C(=O)N[C@H](C(N)=O)C(C)O` (stereo partly drawn) [4-[(2S)-2-{[(2S)-1-[(2S,4R)-2-{[(1S)-3-carbamoyl-1-{[(1S,2S)-1-carbamoyl-2-hydroxypropyl]carbamoyl}propyl]carbamoyl}-4-hydroxypyrrolidin-1-yl]-4-methyl-1-oxopentan-2-yl]carbamoyl}-2-acetamidoethyl]phenoxyphosphonic acid] (Ac-[pY]L[Hyp]Q[Thr(3ξ)]-NH2), 0.484 µM corresponded to half-maximal inhibition (IC50). The same measure, in the same setting: the value for `CC(=O)N[C@@H](Cc1ccc(OP(=O)(O)O)cc1)C(=O)N[C@H](C(=O)N1CCC[C@H]1C(=O)N[C@@H](CCC(N)=O)C(=O)N[C@H](C(N)=O)C(C)O)C(C)C` (stereo partly drawn) [4-[(2S)-2-{[(2S)-1-[(2S)-2-{[(1S)-3-carbamoyl-1-{[(1S,2S)-1-carbamoyl-2-hydroxypropyl]carbamoyl}propyl]carbamoyl}pyrrolidin-1-yl]-3-methyl-1-oxobutan-2-yl]carbamoyl}-2-acetamidoethyl]phenoxyphosphonic acid] (Ac-[pY]VPQ[Thr(3ξ)]-NH2) was 1.54 µM.
